We go through 13 compounds from patent US20240150377A1, “MODULATORS OF CYSTIC FIBROSIS TRANSMEMBRANE CONDUCTANCE REGULATOR” (VERTEX PHARMACEUTICALS INCORPORATED, priority 2020, published 2024).

The experiment deals with T1, CFTR (Homo sapiens, UniProt P13569, DEL508-508).
T1 construct: endogenous in cells; host or cells: primary human bronchial epithelial cells from CF subjects (F508del/MF-HBE), differentiated at air-liquid interface
In words: HBE assay: Ussing chamber assay of CFTR-mediated short-circuit currents. Type of experiment: cell-based. The following applies: for activation at 10 µM: read-out: HBE Activity at 10 μM (%). The method, then:
1. Ussing Chamber Assay of CFTR-Mediated Short-Circuit Currents
Ussing chamber experiments were performed using human bronchial epithelial (HBE) cells derived from CF subjects heterozygous for F508del and a minimal function CFTR mutation (F508del/MF-HBE) and cultured as previously described (Neuberger T, Burton B, Clark H, Van Goor F Methods Mol Biol 2011:741:39-54). After four days the apical media was removed, and the cells were grown at an air liquid interface for >14 days prior to use.
(§1) To isolate the CFTR-mediated short-circuit (ISC) current, F508del/MF-HBE grown on Costar® Snapwell™ cell culture inserts were mounted in an Ussing chamber and the transepithelial ISC was measured under voltage-clamp recording conditions (Vhold=0 mV) at 37° C. The basolateral solution contained (in mM) 145 NaCl, 0.83 K2HPO4, 3.3 KH2PO4, 1.2 MgCl2, 1.2 CaCl2), 10 Glucose, 10 HEPES (pH adjusted to 7.4 with NaOH) and the apical solution contained (in mM) 145 NaGluconate, 1.2 MgCl2, 1.2 CaCl2), 10 glucose, 10 HEPES (pH adjusted to 7.4 with NaOH) and 30 μM amiloride to block the epithelial sodium channel. Forskolin (20 μM) was added to the apical surface to activate CFTR, followed by apical addition of a CFTR inhibitor cocktail consisting of BPO, GlyH-101, and CFTR inhibitor 172 (each at 20 μM final assay concentration) to specifically isolate CFTR currents. The CFTR-mediated ISC (μA/cm^2) for each condition was determined from the peak forskolin response to the steady-state current following inhibition.
2. Identification of Corrector Compounds
The activity of the CFTR corrector compounds on the CFTR-mediated ISC was determined in Ussing chamber studies as described above. The F508del/MF-HBE cell cultures were either incubated with the corrector compounds at a range of concentrations in combination with 1 μM Ivacaftor or were incubated with the corrector compounds at a single fixed concentration of 10 μM in combination with 1 μM Ivacaftor for 18-24 hours at 37° C. and in the presence of 20% human serum. The concentration of corrector compounds with 1 μM Ivacaftor during the 18-24 hours incubations was kept constant throughout the Ussing chamber measurement of the CFTR-mediated ISC to ensure compounds were present throughout the entire experiment.
Ussing Chamber Assay of CFTR-mediated short-circuit currents
Ussing chamber experiments were performed using human bronchial epithelial (HIBE) cells derived from CF subjects heterozygous for F508del and a minimal function CFTR mutation (F508del/MIF-HIBE) and cultured as previously described (Neuberger T, Burton B, Clark H, Van Goor F Methods Mol Biol 2011:741:39-54). After four days the apical media was removed, and the cells were grown at an air liquid interface for >14 days prior to use.
as §1, with “KH2PO4,” for “K2HPO4,”
Identification of Corrector Compounds

Where [1] appears, read: Table 10, read-out: HBE Max activity (%).
The mark [2] stands for this setting: Table 11, read-out: HBE Max Activity (%).

Structures are written as SMILES. Where two headings read alike, the source gives them in different places. Bounds are passed on as bounds.

T1 sequence (P13569 with tags, fused parts or gaps DEL508-508): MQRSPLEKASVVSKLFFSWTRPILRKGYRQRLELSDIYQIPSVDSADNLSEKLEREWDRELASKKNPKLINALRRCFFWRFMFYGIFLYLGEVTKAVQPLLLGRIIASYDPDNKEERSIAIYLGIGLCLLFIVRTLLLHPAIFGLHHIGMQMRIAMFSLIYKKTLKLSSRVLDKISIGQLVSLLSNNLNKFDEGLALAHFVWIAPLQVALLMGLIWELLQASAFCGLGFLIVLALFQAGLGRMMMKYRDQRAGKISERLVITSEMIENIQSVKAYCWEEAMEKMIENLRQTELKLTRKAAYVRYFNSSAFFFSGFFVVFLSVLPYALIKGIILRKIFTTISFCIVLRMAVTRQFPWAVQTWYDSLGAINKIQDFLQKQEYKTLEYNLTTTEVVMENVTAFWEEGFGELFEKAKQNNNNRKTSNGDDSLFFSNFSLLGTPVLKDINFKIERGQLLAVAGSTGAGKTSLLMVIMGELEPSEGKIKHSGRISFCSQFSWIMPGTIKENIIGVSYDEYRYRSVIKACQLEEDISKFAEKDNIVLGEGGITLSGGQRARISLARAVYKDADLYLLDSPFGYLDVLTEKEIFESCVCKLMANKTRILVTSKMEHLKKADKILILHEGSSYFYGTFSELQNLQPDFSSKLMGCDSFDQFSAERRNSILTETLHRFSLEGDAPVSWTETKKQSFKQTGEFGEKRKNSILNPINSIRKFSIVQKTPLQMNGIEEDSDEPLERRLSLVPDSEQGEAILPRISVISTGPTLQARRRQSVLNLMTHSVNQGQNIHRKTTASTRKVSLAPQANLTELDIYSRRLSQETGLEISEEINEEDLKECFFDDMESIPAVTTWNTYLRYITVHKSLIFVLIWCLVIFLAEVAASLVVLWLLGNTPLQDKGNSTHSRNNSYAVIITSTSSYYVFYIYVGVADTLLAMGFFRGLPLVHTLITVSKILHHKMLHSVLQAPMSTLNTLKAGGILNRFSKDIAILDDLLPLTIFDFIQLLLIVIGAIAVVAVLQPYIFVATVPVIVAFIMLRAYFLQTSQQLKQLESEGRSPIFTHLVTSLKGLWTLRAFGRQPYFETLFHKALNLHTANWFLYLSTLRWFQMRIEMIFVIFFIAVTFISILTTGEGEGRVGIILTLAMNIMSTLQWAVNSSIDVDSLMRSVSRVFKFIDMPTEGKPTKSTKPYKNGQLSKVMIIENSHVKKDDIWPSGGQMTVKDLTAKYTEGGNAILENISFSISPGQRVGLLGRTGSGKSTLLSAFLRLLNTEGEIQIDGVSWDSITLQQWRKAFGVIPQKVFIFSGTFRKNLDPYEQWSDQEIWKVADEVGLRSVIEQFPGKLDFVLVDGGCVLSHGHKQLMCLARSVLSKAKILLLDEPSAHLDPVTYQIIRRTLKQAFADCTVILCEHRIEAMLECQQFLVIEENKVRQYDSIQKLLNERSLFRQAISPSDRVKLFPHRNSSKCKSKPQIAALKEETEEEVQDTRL

`Cc1cccc(C)c1-c1cc2nc(n1)NS(=O)(=O)c1cccc(c1)C(=O)N(Cc1ccc(N3CCOCC3)nc1)[C@H](CC(C)(C)C)CO2` [Compound 60, (11R)-6-(2,6-Dimethylphenyl)-11-(2,2-dimethylpropyl)-12-[(6-morpholino-3-pyridyl)methyl]-2,2-dioxo-9-oxa-2λ^6-thia-3,5,12,19-tetrazatricyclo[12.3.1.14,8]nonadeca-1(18),4(19),5,7,14,16-hexaen-13-one]: the EC50 (in general, the concentration at which the effect is half-maximal) (Table 10, read-out: HBE EC50) was < 1 µM. In addition, the Emax under setting [1] was > 60%.

Take `Cc1cccc(C)c1-c1cc2nc(n1)NS(=O)(=O)c1cccc(c1)C(=O)N(Cc1cncc(N(C)CC(C)(C)C)n1)[C@H](CC(C)(C)C)CO2` [Compound 62, (11R)-6-(2,6-Dimethylphenyl)-11-(2,2-dimethylpropyl)-12-({6-[(2,2-dimethylpropyl)(methyl)amino]pyrazin-2-yl}methyl)-9-oxa-2λ^6-thia-3,5,12,19-tetraazatricyclo[12.3.1.14,8]nonadeca-1(18),4,6,8(19),14,16-hexaene-2,2,13-trione]: the EC50 (Table 11, read-out: HBE EC50) is < 1 µM. Moreover, the Emax under setting [2] was > 60%.

Regarding `Cc1cccc(C)c1-c1cc2nc(n1)NS(=O)(=O)c1cccc(c1)C(=O)N(CC1CC(N3CC(C)OC(C)C3)C1)[C@H](CC(C)(C)C)CO2` (stereo partly drawn) [Compound 65, (11R)-12-[[3-(2,6-Dimethylmorpholin-4-yl)cyclobutyl]methyl]-6-(2,6-dimethylphenyl)-11-(2,2-dimethylpropyl)-2,2-dioxo-9-oxa-2λ^6-thia-3,5,12,19-tetrazatricyclo[12.3.1.14,8]nonadeca-1(18),4(19),5,7,14,16-hexaen-13-one], the activation at 10 µM is > 60%.

For `Cc1cccc(C)c1-c1cc2nc(n1)NS(=O)(=O)c1cccc(c1)C(=O)N(CC1CCN(c3ncccn3)CC1)[C@H](CC(C)(C)C)CO2` [Compound 109, (11R)-6-(2,6-Dimethylphenyl)-11-(2,2-dimethylpropyl)-2,2-dioxo-12-[(1-pyrimidin-2-yl-4-piperidyl)methyl]-9-oxa-2λ^6-thia-3,5,12,19-tetrazatricyclo[12.3.1.14,8]nonadeca-1(18),4(19),5,7,14,16-hexaen-13-one], the EC50 (Table 10, read-out: HBE EC50) was < 1 µM. Besides, the Emax under setting [1] was > 60%.

In the case of `Cc1cccc(C)c1-c1cc2nc(n1)NS(=O)(=O)c1cccc(c1)C(=O)N(CCc1cccc(N3CCOCC3)n1)[C@H](CC(C)(C)C)CO2` [Compound 110, (11R)-6-(2,6-Dimethylphenyl)-11-(2,2-dimethylpropyl)-12-[2-(6-morpholino-2-pyridyl)ethyl]-2,2-dioxo-9-oxa-2λ^6-thia-3,5,12,19-tetrazatricyclo[12.3.1.14,8]nonadeca-1(18),4(19),5,7,14,16-hexaen-13-one], under “Table 11, at 10 μM”, the activation at 10 µM was > 60%. Under “Table 11, read-out: HBE EC50”, the EC50 is < 1 µM. Besides, the Emax under setting [2] is > 60%.

As for `Cc1cccc(C)c1-c1cc2nc(n1)NS(=O)(=O)c1cccc(c1)C(=O)N(CCc1ccc(C3CCCCC3)cn1)[C@H](CC(C)(C)C)CO2` [Compound 112, (11R)-12-[2-(5-Cyclohexyl-2-pyridyl)ethyl]-6-(2,6-dimethylphenyl)-11-(2,2-dimethylpropyl)-2,2-dioxo-9-oxa-2λ^6-thia-3,5,12,19-tetrazatricyclo[12.3.1.14,8]nonadeca-1(18),4(19),5,7,14,16-hexaen-13-one], for the setting “Table 11, read-out: HBE EC50”, the 50% effective concentration (EC50) was < 1 µM. Besides, the Emax under setting [2] is > 60%.

Consider `Cc1cccc(C)c1-c1cc2nc(n1)NS(=O)(=O)c1cccc(c1)C(=O)N(Cc1ncc(N3CCC(C)(C)CC3)cn1)[C@H](CC(C)(C)C)CO2` [Compound 117, (11R)-6-(2,6-dimethylphenyl)-12-[[5-(4,4-dimethyl-1-piperidyl)pyrimidin-2-yl]methyl]-11-(2,2-dimethylpropyl)-2,2-dioxo-9-oxa-2λ^6-thia-3,5,12,19-tetrazatricyclo[12.3.1.14,8]nonadeca-1(18),4(19),5,7,14,16-hexaen-13-one], for which the EC50 (Table 11, read-out: HBE EC50) was < 1 µM. For the same compound, the Emax under setting [2] is > 60%.

On to `Cc1cccc(C)c1-c1cc2nc(n1)NS(=O)(=O)c1cccc(c1)C(=O)N(Cc1ncc(CC(C)C)cn1)[C@H](CC(C)(C)C)CO2` [Compound 120, (11R)-6-(2,6-Dimethylphenyl)-11-(2,2-dimethylpropyl)-12-[(5-isobutylpyrimidin-2-yl)methyl]-2,2-dioxo-9-oxa-2λ^6-thia-3,5,12,19-tetrazatricyclo[12.3.1.14,8]nonadeca-1(18),4(19),5,7,14,16-hexaen-13-one], for which, for the setting “Table 11, read-out: HBE EC50”, the EC50 is < 1 µM. Also, the Emax under setting [2] is > 60%.

As for `Cc1cccc(C)c1-c1cc2nc(n1)NS(=O)(=O)c1cccc(c1)C(=O)N(Cc1nccc(C(C)C)n1)[C@H](CC(C)(C)C)CO2` [Compound 121, (11R)-6-(2,6-Dimethylphenyl)-11-(2,2-dimethylpropyl)-12-[(4-isopropylpyrimidin-2-yl)methyl]-2,2-dioxo-9-oxa-2λ^6-thia-3,5,12,19-tetrazatricyclo[12.3.1.14,8]nonadeca-1(18),4(19),5,7,14,16-hexaen-13-one], the EC50 (Table 11, read-out: HBE EC50) was < 1 µM. For the same compound, under setting [2], the Emax was > 60%.

Consider `Cc1cccc(C)c1-c1cc2nc(n1)NS(=O)(=O)c1cccc(c1)C(=O)N(Cc1nccc(N(C)C(C)C)n1)[C@H](CC(C)(C)C)CO2` [Compound 123, (11R)-6-(2,6-Dimethylphenyl)-11-(2,2-dimethylpropyl)-12-[[4-[isopropyl(methyl)amino]pyrimidin-2-yl]methyl]-2,2-dioxo-9-oxa-2λ^6-thia-3,5,12,19-tetrazatricyclo[12.3.1.14,8]nonadeca-1(18),4(19),5,7,14,16-hexaen-13-one], for which, for the setting “Table 11, read-out: HBE EC50”, the EC50 is < 1 µM. For the same compound, the Emax under setting [2] was > 60%.

As for `Cc1cccc(C)c1-c1cc2nc(n1)NS(=O)(=O)c1cccc(c1)C(=O)N(Cc1cccc(Oc3ccccc3)n1)[C@H](CC(C)(C)C)CO2` [Compound 126, (11R)-6-(2,6-Dimethylphenyl)-11-(2,2-dimethylpropyl)-2,2-dioxo-12-[(6-phenoxy-2-pyridyl)methyl]-9-oxa-2λ^6-thia-3,5,12,19-tetrazatricyclo[12.3.1.14,8]nonadeca-1(18),4(19),5,7,14,16-hexaen-13-one], for the setting “HBE EC50 (μM), Table 10”, the EC50 is < 1 µM. The Emax (read-out: HBE Max activity (%)) was > 60%.

Consider `COCCCN(C)c1cccc(CN2C(=O)c3cccc(c3)S(=O)(=O)Nc3nc(cc(-c4c(C)cccc4C)n3)OC[C@H]2CC(C)(C)C)n1` [Compound 127, (11R)-6-(2,6-Dimethylphenyl)-11-(2,2-dimethylpropyl)-12-[[6-[3-methoxypropyl(methyl)amino]-2-pyridyl]methyl]-2,2-dioxo-9-oxa-2λ^6-thia-3,5,12,19-tetrazatricyclo[12.3.1.14,8]nonadeca-1(18),4(19),5,7,14,16-hexaen-13-one], for which the EC50 (Table 10, read-out: HBE EC50) was < 1 µM. The Emax (read-out: HBE Max activity (%)) was > 60%.

With `COCCN(CCOC)c1cccc(CN2C(=O)c3cccc(c3)S(=O)(=O)Nc3nc(cc(-c4c(C)cccc4C)n3)OC[C@H]2CC(C)(C)C)n1` [Compound 128, (11R)-12-[[6-[Bis(2-methoxyethyl)amino]-2-pyridyl]methyl]-6-(2,6-dimethylphenyl)-11-(2,2-dimethylpropyl)-2,2-dioxo-9-oxa-2λ^6-thia-3,5,12,19-tetrazatricyclo[12.3.1.14,8]nonadeca-1(18),4(19),5,7,14,16-hexaen-13-one], the activation at 10 µM was > 60%. Besides, the EC50 (Table 10, read-out: HBE EC50) is < 1 µM. Also, the Emax (read-out: HBE Max activity (%)) is > 60%.
